The values below come from patent US11091497B2, “Pyrano[3,4-b]pyrazine kappa opioid receptor ligands for treating addiction, pruritus, pain, and inflammation” (The Rockefeller University, priority 2017, dated 2021).

Molecules are shown by their SMILES. pEC50, pIC50: −log10 of the molar value. Read-outs that look alike come from different tables or passages of the source.

For test [1], the target named is T1, kappa opioid receptor (PathHunter U2OS hOPRK1 β-arrestin cell line) (Homo sapiens, UniProt P41145).
T1 construct: host or cells: U2OS (PathHunter U2OS hOPRK1 β-arrestin cell line)
T1 sequence (P41145 whole entry): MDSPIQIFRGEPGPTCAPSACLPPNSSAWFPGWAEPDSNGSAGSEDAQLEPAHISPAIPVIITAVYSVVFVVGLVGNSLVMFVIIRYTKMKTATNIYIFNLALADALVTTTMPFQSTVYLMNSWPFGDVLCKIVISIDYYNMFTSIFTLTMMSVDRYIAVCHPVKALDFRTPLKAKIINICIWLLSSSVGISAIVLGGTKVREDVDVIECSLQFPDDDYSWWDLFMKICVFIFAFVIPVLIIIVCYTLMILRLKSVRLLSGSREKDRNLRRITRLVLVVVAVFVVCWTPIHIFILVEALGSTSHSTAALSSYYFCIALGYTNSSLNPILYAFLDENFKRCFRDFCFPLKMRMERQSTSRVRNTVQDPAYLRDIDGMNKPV
Nature of the test: β-arrestin coupling (PathHunter Detection Kit). The following applies: for Emax at 10 µM: U2OS. The test is classed as cell-based. The procedure: (§1) Membranes from cells stably expressing kappa, mu or delta opioid receptor constructs (PathHunter U2OS hOPRK1, CHO-K1 rOPRM1 and CHO-K1 OPRD1 β-arrestin cell line, DiscoverX, Fremont, Calif., USA) were used. Cells were scraped from tissue culture plates, homogenized with a tissue tearor homogenizer in membrane buffer (10 mM Tris, 100 mM NaCl, and 1 mM EDTA; pH 7.4), and centrifuged at 20,000 g for 30 minutes at 4° C. and frozen at −80° C. until use. Prior to use, the pellets were resuspended in binding buffer (50 mm Tris, 100 mm NaCl, pH 7.4), homogenized with a dounce homogenizer and […] incubated with 1.0 nM of the appropriate tritiated ligand ([^3H]U69,593, [^3H]DAMGO or [^3H]DPDPE for kappa, mu or delta binding, respectively) and the appropriate concentration of compound for 60 minutes at 30° C. Membranes with bound tritiated ligand were collected on Whatman GF/B filter paper (Brandel, Gaithersburg, Md., USA) utilizing a Brandel harvester. Bound tritiated ligand was quantified using a TriCarb-2900TR scintillation counter (Packard, Downers Grove, Ill., USA) following addition of 4 ml ReadySafe scintillation fluid (Beckman Coulter, Indianapolis, Ind., USA). Compiled data for each compound was normalized to the maximal binding in the absence of compound, with non-specific binding subtracted. Curve fitting was done in Microcal Origin 17.0 software using logistic sigmoidal fit, to determine IC50. GTPgammaS Membranes from U2OS cells stably expressing human kappa opioid receptors were used. Cells were scraped from tissue culture plates, homogenized with a tissue tearor homogenizer in membrane buffer (10 mM Tris, 100 mM NaCl, and 1 mM EDTA; pH 7.4), and centrifuged at 20,000 g for 30 minutes at 4° C. and frozen at −80° C. until use. Prior to use, the pellets were resuspended in assay buffer (50 mm Tris, 100 mm NaCl, 5 mM MgCl2, and 1 mM EDTA; pH 7.4) and homogenized with a dounce homogenizer and 50 μg incubated with 0.1 nM [35 S]GTPγS, 10 nM GDP, and the appropriate concentration of agonist for 20 minutes at 30° C. To test inhibition, all samples were incubated with 100 nM U69,593 as well as the appropriate concentration of compound. Membranes with bound [35 S]GTPγS were collected on Whatman GF/B filter paper (Brandel, Gaithersburg, Md., USA) utilizing a Brandel harvester. Bound [35 S]GTPγS was quantified using a TriCarb-2900TR scintillation counter (Packard, Downers Grove, Ill., USA) following addition of 4 mL ReadySafe scintillation fluid (Beckman Coulter, Indianapolis, Ind., USA). […] NA indicates not applicable. For each compound, curve fitting was done in Microcal Origin 17.0 software using logistic sigmoidal fit, to determine EC50 and maximal percent stimulation, which in turn was normalized to the maximal percent stimulation of the test full agonist compound U69,593 to determine % efficacy. β2-Arrestin Experiments were conducted using the PathHunter Detection Kit obtained from DiscoverX. Cells stably expressing kappa, mu or delta opioid receptor constructs (PathHunter U2OS hOPRK1, CHO-K1 rOPRM1 and CHO-K1 OPRD1 β-arrestin cell line, DiscoverX, Fremont, Calif., USA) were plated in 96- or 384-well plates. Cells were stimulated with the compounds for 90 minutes at 37° C. To test inhibition, all samples were incubated with 100 nM U69,593 as well as the appropriate concentration of compound. Cells were then incubated for 60 minutes in the presence of galoctosidase substrate, yielding chemiluminescent product. Chemiluminescence was measured using a Synergy Neo microplate reader (BioTek, Winooski, Vt., USA). Antagonism assays were done in the same manner, in the presence of 300 nM U69,593, 1 μM DAMGO or 1 μM DPDPE for KOP-R, MOP-R or DOP-R assays, respectively. […] NA indicates not applicable. […]

In test [2] the target is T2, human kappa opioid receptors (Homo sapiens, UniProt P41145).
T2 construct: expressed in transfected cells; host or cells: U2OS
T2 sequence (P41145 whole entry): as above
The test is described as follows: [35S]GTPγS stimulation, membranes from U2OS cells. To be noted: for Emax: read-out: GTPγS stimulation % efficacy. The test is classed as biochemical. How it is done: Membranes from cells stably expressing kappa, mu or delta opioid receptor constructs (PathHunter U2OS hOPRK1, CHO-K1 rOPRM1 and CHO-K1 OPRD1 β-arrestin cell line, DiscoverX, Fremont, Calif., USA) were used. Cells were scraped from tissue culture plates, homogenized with a tissue tearor homogenizer in membrane buffer (10 mM Tris, 100 mM NaCl, and 1 mM EDTA; pH 7.4), and centrifuged at 20,000 g for 30 minutes at 4° C. and frozen at −80° C. until use. Prior to use, the pellets were resuspended in binding buffer (50 mm Tris, 100 mm NaCl, pH 7.4), homogenized with a dounce homogenizer and […] incubated with 1.0 nM of the appropriate tritiated ligand ([^3H]U69,593, [^3H]DAMGO or [^3H]DPDPE for kappa, mu or delta binding, respectively) and the appropriate concentration of compound for 60 minutes at 30° C. Membranes with bound tritiated ligand were collected on Whatman GF/B filter paper (Brandel, Gaithersburg, Md., USA) utilizing a Brandel harvester. Bound tritiated ligand was quantified using a TriCarb-2900TR scintillation counter (Packard, Downers Grove, Ill., USA) following addition of 4 ml ReadySafe scintillation fluid (Beckman Coulter, Indianapolis, Ind., USA). Compiled data for each compound was normalized to the maximal binding in the absence of compound, with non-specific binding subtracted. Curve fitting was done in Microcal Origin 17.0 software using logistic sigmoidal fit, to determine IC50. GTPgammaS Membranes from U2OS cells stably expressing human kappa opioid receptors were used. Cells were scraped from tissue culture plates, homogenized with a tissue tearor homogenizer in membrane buffer (10 mM Tris, 100 mM NaCl, and 1 mM EDTA; pH 7.4), and centrifuged at 20,000 g for 30 minutes at 4° C. and frozen at −80° C. until use. Prior to use, the pellets were resuspended in assay buffer (50 mm Tris, 100 mm NaCl, 5 mM MgCl2, and 1 mM EDTA; pH 7.4) and homogenized with a dounce homogenizer and 50 μg incubated with 0.1 nM [35 S]GTPγS, 10 nM GDP, and the appropriate concentration of agonist for 20 minutes at 30° C. To test inhibition, all samples were incubated with 100 nM U69,593 as well as the appropriate concentration of compound. Membranes with bound [35 S]GTPγS were collected on Whatman GF/B filter paper (Brandel, Gaithersburg, Md., USA) utilizing a Brandel harvester. Bound [35 S]GTPγS was quantified using a TriCarb-2900TR scintillation counter (Packard, Downers Grove, Ill., USA) following addition of 4 mL ReadySafe scintillation fluid (Beckman Coulter, Indianapolis, Ind., USA). […] For each compound, curve fitting was done in Microcal Origin 17.0 software using logistic sigmoidal fit, to determine EC50 and maximal percent stimulation, which in turn was normalized to the maximal percent stimulation of the test full agonist compound U69,593 to determine % efficacy. β2-Arrestin Experiments were conducted using the PathHunter Detection Kit obtained from DiscoverX. Cells stably expressing kappa, mu or delta opioid receptor constructs (PathHunter U2OS hOPRK1, CHO-K1 rOPRM1 and CHO-K1 OPRD1 β-arrestin cell line, DiscoverX, Fremont, Calif., USA) were plated in 96- or 384-well plates. Cells were stimulated with the compounds for 90 minutes at 37° C. To test inhibition, all samples were incubated with 100 nM U69,593 as well as the appropriate concentration of compound. Cells were then incubated for 60 minutes in the presence of galoctosidase substrate, yielding chemiluminescent product. Chemiluminescence was measured using a Synergy Neo microplate reader (BioTek, Winooski, Vt., USA). Antagonism assays were done in the same manner, in the presence of 300 nM U69,593, 1 μM DAMGO or 1 μM DPDPE for KOP-R, MOP-R or DOP-R assays, respectively.
In general terms: GTPγS is a poorly hydrolysed GTP analogue; its binding reports G protein activation.

The target in test [3] is T3, kappa opioid receptor (PathHunter U2OS hOPRK1 membranes) (Homo sapiens, UniProt P41145).
T3 construct: host or cells: U2OS (PathHunter U2OS hOPRK1 β-arrestin cell line)
T3 sequence (P41145 whole entry): as above
Nature of the test: Tritiated U69,593 binding for KOP-R membranes. How it is done:
Tritiated U69,593 binding for KOP-R membranes; tritiated DAMGO binding for MOP-R membranes; and tritiated DPDPE binding for DOP-R membranes:
as §1

The mark [4] stands for this setting: read-out: β-arrestin coupling % efficacy at 10 μM.
Setting [5] is: 1.0 nM [3H]U69,593, 60 minutes at 30° C., read-out: Binding IC50.

`CS(=O)(=O)N1CCN(C(=O)Cc2ccc(Cl)c(Cl)c2)[C@H]2[C@H](N3CCCC3)COC[C@@H]21` (single isomer, unassigned) [Example 5A44B]: the Emax at 10 µM in test [1] (setting [4]) is 70%. Besides, in test [2], the pEC50 was 8.34 and the Emax stood at 105%. Also, the pIC50 in test [3] was 7.74.

Regarding `O=C(Cc1ccc(Cl)c(Cl)c1)N1CCN(Cc2ccccc2)[C@@H]2COC[C@H](N3CCCC3)[C@H]21` (racemic) [Example 5A53, 1-[4-benzyl-8-pyrrolidin-1-yl-3,4a,5,7,8,8a-hexahydro-2H-pyrano(3,4-b)pyrazin-1-yl]-2-(3,4-dichlorophenyl)ethanone], the Emax at 10 µM in test [1] (setting [4]) worked out at 80%. For the same molecule, in test [2], the pEC50 was 7.92 and the Emax came to 82%. Besides, the pIC50 in test [3] was 7.40.

For the molecule `O=C(Cc1ccc(Cl)c(Cl)c1)N1CCN(S(=O)(=O)C2CC2)[C@H]2COC[C@@H](N3CCCC3)[C@@H]21` (single isomer, unassigned) [Example 5A52B], the Emax at 10 µM in test [1] (setting [4]) was 25%. For the same molecule, in test [2], the pEC50 is 7.74 and the Emax is 96%. The pIC50 in test [3] is 7.57.

Regarding `CS(=O)(=O)N1CCN(C(=O)Cc2ccc(Cl)c(Cl)c2)[C@H]2[C@H]1COC[C@@H]2N1CCCC1` (single isomer, unassigned) [Example 5A44A], the Emax at 10 µM in test [1] (setting [4]) was found to be 80%. Also, in test [2], the pEC50 is 8.47 and the Emax amounted to 119%. The pIC50 in test [3] was 8.27.

Consider `Cc1ccc(CC(=O)N2CCN[C@@H]3COC[C@H](N4CCCC4)[C@H]32)cc1Cl` (racemic) [Example 5A57], for which the Emax at 10 µM in test [1] (setting [4]) amounted to 20%. For the same molecule, in test [2], the pEC50 was 7.21 and the Emax worked out at 98%. For the same molecule, the pIC50 in test [3] is 7.38.

Consider `O=C(Cc1ccc(Cl)cc1)N1CCN[C@@H]2COC[C@H](N3CCCC3)[C@H]21` (racemic) [Example 5A66], for which the Emax at 10 µM in test [1] (setting [4]) is 20%. In test [2], the pEC50 was 6.25 and the Emax turned out to be 140%. In test [3] (setting [5]), the pIC50 was 6.34.

For the molecule `O=C(Cc1cccc(Cl)c1Cl)N1CCN[C@@H]2COC[C@H](N3CCCC3)[C@H]21` (racemic) [Example 5A48], the “β-arrestin coupling % efficacy” value in test [1] (maximal, normalized to U69,593, No stim = no stimulation at highest dose tested, 10,000 nM) is “No stim”. Moreover, in test [2], the pEC50 was 4.66 and the Emax was found to be 181%. Further, in test [3] (setting [5]), the pIC50 was 5.98.

`Cc1ccc(CC(=O)N2CCN[C@@H]3COC[C@H](N4CCCC4)[C@H]32)cc1C(F)(F)F` (racemic) [Example 5A47]: the values for the pEC50 in test [1] and in test [2] were 5.31 and 8.05, respectively. Also, the Emax at 10 µM in test [1] (read-out: β-arrestin coupling % efficacy) was found to be 78%. Also, the Emax in test [2] is 84%. Also, the pIC50 in test [3] was 7.51.

`O=C(Cc1ccc(Cl)c(F)c1)N1CCN[C@@H]2COC[C@H](N3CCCC3)[C@H]21` (racemic) [Example 5A65]: in test [1] (setting [4]), the Emax at 10 µM was 20%. Besides, in test [2] (20 minutes at 30° C., read-out: GTPγS stimulation EC50), the pEC50 is 6.87. In addition, the Emax in test [2] worked out at 121%. Moreover, the pIC50 in test [3] is 7.17.

A word on the pEC50: it is the negative decadic logarithm of the EC50, by convention in mol/L. What is called pIC50 is the IC50 on a negative log10 scale, so that one unit is a factor of ten.
